The record followed here is patent US10550143B2, “C,O-spiro aryl glycoside compounds, preparation therefor and use thereof” (SHANGHAI INSTITUTE OF MATERIA MEDICA, CHINESE ACADEMY OF …, priority 2015, dated 2020).

The target of data set [1] is T1, human sodium-glucose cotransporter 2 (SGLT2) (Homo sapiens, UniProt P31639).
T1 construct: expressed in transfected cells; host or cells: NIH3T3 (mouse fibroblast) cells expressing hSGLT2
T1 sequence (P31639 1-672): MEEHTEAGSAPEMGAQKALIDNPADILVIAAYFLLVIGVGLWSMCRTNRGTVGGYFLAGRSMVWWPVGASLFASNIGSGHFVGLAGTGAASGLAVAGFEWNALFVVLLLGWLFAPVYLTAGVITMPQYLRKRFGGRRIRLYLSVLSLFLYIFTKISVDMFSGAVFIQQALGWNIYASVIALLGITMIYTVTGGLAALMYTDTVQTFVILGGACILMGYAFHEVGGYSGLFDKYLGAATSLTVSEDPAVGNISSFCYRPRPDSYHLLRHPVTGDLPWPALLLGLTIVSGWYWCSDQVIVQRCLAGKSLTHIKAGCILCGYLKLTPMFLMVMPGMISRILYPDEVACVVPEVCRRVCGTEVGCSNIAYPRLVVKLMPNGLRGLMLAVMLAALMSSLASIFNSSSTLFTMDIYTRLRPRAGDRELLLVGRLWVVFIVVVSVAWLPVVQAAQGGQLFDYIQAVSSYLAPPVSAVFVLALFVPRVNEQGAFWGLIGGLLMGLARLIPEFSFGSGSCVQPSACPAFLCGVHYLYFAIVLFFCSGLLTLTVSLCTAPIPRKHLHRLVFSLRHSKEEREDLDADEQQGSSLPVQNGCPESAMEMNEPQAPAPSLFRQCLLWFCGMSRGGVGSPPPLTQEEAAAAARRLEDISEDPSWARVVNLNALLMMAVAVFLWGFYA
The data set can be described thus: In vitro SGLT2 inhibition, methyl-α-D-[U-14C]glucopyranoside uptake in NIH3T3-hSGLT2 cells. Type of data set: cell-based. The gist of the method: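 NIH3T3-hSGLT2 cells (40000/well, gelatin-coated, 2 mM sodium butyrate the next day) were preincubated 30 min in KRH-Na+, then given compound plus uptake buffer with methyl-α-D-[U-14C]glucopyranoside and ⅙ mM methyl-α-D-glucopyranoside. Uptake was read by scintillation counting, with KRH-acetylcholine as background.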

In a further data set the target is T2, hSGLT1 (Homo sapiens, UniProt P13866).
T2 sequence (P13866 1-664): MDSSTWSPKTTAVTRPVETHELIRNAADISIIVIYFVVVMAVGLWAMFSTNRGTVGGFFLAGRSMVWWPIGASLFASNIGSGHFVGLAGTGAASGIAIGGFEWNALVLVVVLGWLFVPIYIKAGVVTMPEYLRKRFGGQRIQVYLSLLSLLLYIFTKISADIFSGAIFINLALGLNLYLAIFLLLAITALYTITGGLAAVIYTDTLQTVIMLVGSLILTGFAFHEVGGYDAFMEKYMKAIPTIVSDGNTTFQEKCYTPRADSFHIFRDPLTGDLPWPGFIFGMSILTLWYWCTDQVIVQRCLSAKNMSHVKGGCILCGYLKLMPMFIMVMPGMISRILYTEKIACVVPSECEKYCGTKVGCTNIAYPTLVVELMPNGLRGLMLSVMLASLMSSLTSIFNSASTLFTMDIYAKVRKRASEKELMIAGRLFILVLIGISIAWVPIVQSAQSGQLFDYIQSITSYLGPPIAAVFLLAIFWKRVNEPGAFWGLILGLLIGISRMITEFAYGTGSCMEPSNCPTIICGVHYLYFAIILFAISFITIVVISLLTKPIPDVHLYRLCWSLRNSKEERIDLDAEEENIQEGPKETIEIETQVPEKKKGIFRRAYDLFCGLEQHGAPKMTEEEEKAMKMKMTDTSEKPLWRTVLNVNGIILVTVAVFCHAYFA
Kind of data set: In vitro SGLT1 inhibition (hSGLT1 IC50 test). Type of data set: cell-based. Conditions: read-out: IC50 ± SD SGLT1.

Data set [2] in a line: Pharmacokinetics in rats after intragastric and intravenous administration. Type of data set: in vivo, rat. Here is the method: Six healthy rats were randomly divided into two groups, three for each group. A28 was administered orally and intravenously, and the drug was grounded and dissolved in 0.5% MC. Fasted for 8 h before testing.
Three rats were intravenously administrated with 2 mg/kg of test compound A28, and 3 rats were orally administered with 10 mg/kg of test compound A28. Blood was collected from the orbital venous plexus of rats before administration, at 15 min, 30 min, 1 hour, 2 hours, 4 hours, 8 hours, 24 hours after administration, respectively. Blood sample were taken from three rats at each time point for each dose, and the plasma was immediately centrifuged.

Setting [3] is: rat, plasma, po, gavage 10 mg/kg.

Structures are written as SMILES.

By inhibition is commonly meant the drop in the measured response relative to a control, in per cent. Usually IC50 stands for the concentration that gives 50% inhibition. What is called AUC(0-t) is exposure summed from dosing to a finite time, without extrapolation to infinity. A higher AUC(0-t) goes with more exposure. As usually defined, the AUC(0-inf) is the area under the concentration-time curve extrapolated to infinity. A higher AUC(0-inf) goes with more exposure. Usually Cmax stands for the peak of the concentration-time curve. As a reminder, the MRT is the average time that molecules of a dose stay in the body. One may read the Tmax as the time at which the peak concentration occurs. One may read the half-life as the time in which the quantity being followed falls by half. A higher half-life goes with slow loss.

In data set [1] (IC50 SGLT1/IC50 SGLT2), `CCc1ccc(Cc2cc3c(cc2Cl)CO[C@]32O[C@H](C)[C@@H](O)[C@H](O)[C@H]2O)s1` [Example A28, (1S,3′R,4′S,5′S,6′R)-6′-methyl-6-((5-ethylthienyl)-2-methyl)-5-chloro-3′,4′,5′,6′-tetrahydro-3H-spiro[isobenzofuran-1,2′-pyran]-3′,4′,5′-triol] gave a Selectivity of 1450. The inhibition at 0.01 µM in data set [1] (SGLT2, 10 nM, read-out: % Inhibition rate ± SD 10 nM) turned out to be 67 ± 4.9%. Moreover, the inhibition at 0.1 µM in data set [1] (SGLT2, 100 nM, read-out: % Inhibition rate ± SD 100 nM) was determined as 86.1 ± 2.4%. The IC50 in data set [1] (read-out: IC50 ± SD SGLT2) worked out at 1.42 ± 0.2 nM. In addition, at hSGLT1, the IC50 was found to be 2060 ± 210 nM. The AUC(0-t) in data set [2] (rat, plasma, intravenous, vein 2 mg/kg) came to 252 ng·h/mL. In data set [2] (rat, plasma, iv, vein 2 mg/kg), the area under the curve AUC(0-inf) is 252 ng·h/mL, the Cmax stood at 201 ng/mL, the mean residence time MRT is 0.982 h and the time to peak (Tmax) stood at 0.25 h. This molecule gave a half-life in data set [2] (rat, plasma, iv, vein 2 mg/kg) of 1.53 h. Further, the bioavailability in data set [2] (rat, plasma, oral, gavage 10 mg/kg vs vein 2 mg/kg, dose normalized, read-out: F (absolute bioavailability)) worked out at 107%. In data set [2] (setting [3]), this molecule gave an AUC(0-inf) of 1350 ng·h/mL, an AUC(0-t) of 1350 ng·h/mL, a Cmax of 273 ng/mL and a mean residence time MRT of 3.79 h. Besides, in data set [2] (setting [3]), the Tmax was 1.67 h and the half-life was 1.69 h. In addition, the CLz in data set [2] (vein 2 mg/kg) came to 134 mL/min/kg.
